Source: patent US20080193398A1, “Derivatives of Heptaazaphenalene, Methods for Obtaining Them, and Their Use as Protecting Agents Against Uv Radiation” (ISDIN, S.A., priority 2005, published 2008)

Experiments:
[1] = UV absorption (UV λmax and εmax) in solution; format: physicochemical
From the text: There follow some examples where the UV λmax and εmax have been measured according to general methods known for the person skilled in the art by way of non-restrictive illustration of the present invention.

Row | UV λmax ([1]; DMSO) [nm] | εmax ([1]; DMSO) [M⁻¹ cm⁻¹] | melting point [°C] | UV λmax ([1]; CHCl3) [nm] | εmax ([1]; CHCl3) [M⁻¹ cm⁻¹] | SMILES
1 | 359 | 135900 | > 275 | – | – | CCOC(=O)/C=C/c1ccc(NC2=NC3=NC(Nc4ccc(/C=C/C(=O)OCC)cc4)=NC4=NC(Nc5ccc(/C=C/C(=O)OCC)cc5)=NC(=N2)N34)cc1 [Example 22, 2,5,8-tris-(4-((E)-3-ethoxy-3-oxoprop-1-enyl)phenylamino)-1,3,4,6,7,9,9b-heptaazaphenalene]
2 | 329 | 116000 | 288 to 291 | – | – | COC(=O)c1ccc(NC2=NC3=NC(Nc4ccc(C(=O)OC)cc4)=NC4=NC(Nc5ccc(C(=O)OC)cc5)=NC(=N2)N34)cc1 [Example 24, 2,5,8-tris-(4-(methoxycarbonyl)phenylamino)-1,3,4,6,7,9,9b-heptaazaphenalene]
3 | 358 | 154000 | 213 to 216 | – | – | CCCCC(CC)COC(=O)/C=C/c1ccc(NC2=NC3=NC(Nc4ccc(/C=C/C(=O)OCC(CC)CCCC)cc4)=NC4=NC(Nc5ccc(/C=C/C(=O)OCC(CC)CCCC)cc5)=NC(=N2)N34)cc1 (stereo not drawn) [Example 32, 2,5,8-tris-(4-((E)-3-(2-ethylhexyloxy)-3-oxoprop-1-enyl)phenylamino)-1,3,4,6,7,9,9b-heptaazaphenalene]
4 | 290 | 126000 | 206 to 210 | – | – | CCCCC(CC)COC(=O)/C=C/c1cccc(NC2=NC3=NC(Nc4cccc(/C=C/C(=O)OCC(CC)CCCC)c4)=NC4=NC(Nc5cccc(/C=C/C(=O)OCC(CC)CCCC)c5)=NC(=N2)N34)c1 (stereo not drawn) [Example 33, 2,5,8-tris-(3-((E)-3-(2-ethylhexyloxy)-3-oxoprop-1-enyl)phenylamino)-1,3,4,6,7,9,9b-heptaazafenaleno]

The remaining lines, values behind:

Row | SMILES | UV λmax ([1]; DMSO) [nm] | εmax ([1]; DMSO) [M⁻¹ cm⁻¹] | melting point [°C] | UV λmax ([1]; CHCl3) [nm] | εmax ([1]; CHCl3) [M⁻¹ cm⁻¹]
5 | C(=C\c1ccc(NC2=NC3=NC(Nc4ccc(/C=C/c5ccccc5)cc4)=NC4=NC(Nc5ccc(/C=C/c6ccccc6)cc5)=NC(=N2)N34)cc1)/c1ccccc1 [Example 28, 2,5,8-tris-((4-(E)-styrylphenyl)amino)-1,3,4,6,7,9,9b-heptaazaphenalene] | 367 | 163000 | > 270 | – | –
6 | CC(C)[C@@H]1CC[C@@H](C)C[C@H]1OC(=O)c1ccc(NC2=NC3=NC(Nc4ccc(C(=O)O[C@@H]5C[C@H](C)CC[C@H]5C(C)C)cc4)=NC4=NC(Nc5ccc(C(=O)O[C@@H]6C[C@H](C)CC[C@H]6C(C)C)cc5)=NC(=N2)N34)cc1 [Example 30, 2,5,8-tris-(4-(L-menthylcarbonyl)phenylamino)-1,3,4,6,7,9,9b-heptaazaphenalene] | 326 | 118000 | 202 to 206 | – | –
7 | CC1CC(OC(=O)c2ccc(NC3=NC4=NC(Nc5ccc(C(=O)OC6CC(C)CC(C)(C)C6)cc5)=NC5=NC(Nc6ccc(C(=O)OC7CC(C)CC(C)(C)C7)cc6)=NC(=N3)N45)cc2)CC(C)(C)C1 (stereo not drawn) [Example 31, 2,5,8-tris-(4-((3,3,5-trimethylcyclohexyloxy)carbonyl)phenylamino)-1,3,4,6,7,9,9b-heptaazaphenalene] | 329 | 143000 | > 275 | – | –
8 | CCCCCCC(CCCC)COC(=O)c1ccc(NC2=NC3=NC(Nc4ccc(C(=O)OCC(CCCC)CCCCCC)cc4)=NC4=NC(Nc5ccc(C(=O)OCC(CCCC)CCCCCC)cc5)=NC(=N2)N34)cc1 (stereo not drawn) [Example 36, 2,5,8-tris-(4-(2-butyloctyloxycarbonyl)phenylamino)-1,3,4,6,7,9,9b-heptaazaphenalene] | – | – | 215 to 222 | 326 | 119000
9 | CCCCCCCCCCCCCCCCOC(=O)c1ccc(NC2=NC3=NC(Nc4ccc(C(=O)OCCCCCCCCCCCCCCCC)cc4)=NC4=NC(Nc5ccc(C(=O)OCCCCCCCCCCCCCCCC)cc5)=NC(=N2)N34)cc1 [Example 42, 2,5,8-tris-(4-(hexadecyloxycarbonyl)phenylamino)-1,3,4,6,7,9,9b-heptaazaphenalene] | 324 | 125000 | 252 to 255 | – | –
